According to patent US10294273B2, “Macrocyclic peptidomimetics for alpha-helix mimicry” (UNIVERSITY OF ROCHESTER, priority 2014, dated 2019):
pIC50: −log10 of the molar value.

Experiments:
[1] = Circular dichroism analysis of α-helicity; settings: 5 mM potassium phosphate pH 7.0, 40% trifluoroethanol
Description: The alpha helical content of the macrocyclic peptidomimetic molecules and reference non-macrocyclic compounds disclosed herein can be determined by Circular Dichroism (CD) spectroscopy.
CD spectra were recorded with a JASCO J-710 CD spectropolarimeter using a 0.1 cm path length cuvette at room temperature. The purified peptides were dissolved in 5 mM potassium phosphate buffer (pH 7.0) containing 40% trifluoroethanol to a final concentration of 20-50 μM. […] The bandwidth was set to 2.0 nm and the sensitivity of the spectrometer set to 100 mdeg.

SJSA-1 cells = assay: Cell viability (MTT) assay in SJSA-1 osteosarcoma cells; assay type: cell-based, human; settings: overnight treatment
Description: The cytotoxic activity of the macrocyclic peptidomimetic molecules is determined, for example, in cell-based assays using tumorigenic and non-tumorigenic cell lines and primary cells derived from human or mouse cell populations. […]. Such assays can be used to assess the efficacy of the macrocyclic peptidomimetic molecules to reduce the viability of tumorigenic and non-tumorigenic cells. In addition, assays that measure Annexin V and caspase activation can be optionally used to assess whether the cytotoxicity of the macrocyclic peptidomimetic molecules is dependent upon activation of the apoptotic machinery, which is expected to result from reactivation of p53 activity.
Similar results were obtained for other p53 macrocyclic peptidomimetic molecules described in FIG. 10, resulting in LD50 in the low micromolar range.
Cultured SJSA-1 cells were maintained in the RPMI-1640 medium supplemented with 10% fetal bovine serum. For viability evaluation cells were seated in 96-well, tissue culture treated plates (2×10^4 cells/well) and incubated overnight. […] The cells were treated overnight and the viability was assessed by a standard MTT (3-(4,5-dimethylthiazol-2-yl)-2,5-diphenyltetrazolium bromide) assay. The viability is expressed as percentage of viability of the non-treated cells.

chymotrypsin = chymotrypsin (Bos taurus, UniProt P00766); assay: Proteolytic stability in the presence of chymotrypsin (HPLC); settings: chymotrypsin 1.0 μg/mL, peptide 10 μM
Description: This property can be assessed by incubating the macrocyclic peptidomimetic molecules and the corresponding reference non-macrocyclic polypeptides in the presence of purified proteases or, alternatively, human blood serum. The in vitro proteolytic degradation of the compounds can be then monitored over time by HPLC equipped with a UV detector. From the resulting time-dependent curves, the half-life of the compounds can be measured. As an example, the in vitro proteolytic stability of macrocycles was measured by incubating the compound (10 μM) in 50 mM potassium phosphate buffer (pH 7.5) in the presence of chymotrypsin (1.0 μg/mL) at room temperature. At different time points (e.g. 0, 30, 60, 120, 180, 240 min), an aliquot of the reaction mixture (50 μL) was removed, quenched addition of TFA (5 μL) followed by HPLC analysis. Peptide cleavage was monitored based on the decrease of the peak area corresponding to the integer peptide.
Each peptide (10 μM) was dissolved in 50 mM potassium phosphate buffer (pH 7.5) containing 150 mM NaCl and 10% DMSO. Chymotrypsin (Sigma-Aldrich) was added to a final concentration of 1.0 μg/mL and incubated at room temperature. At each time point, a 50 μL aliquot of the mixture was removed, quenched by TFA addition (5 μL) followed by HPLC analysis. Peptide cleavage was monitored based on the decrease of the peak area corresponding to the integer peptide. […]

HEK-293 cells = assay: Cell penetration by confocal fluorescence microscopy; assay type: cell-based, human; settings: fluorescein-conjugated compound, 20 μM, 2 h
Description: In some embodiments, the macrocyclic peptidomimetics described herein are more cell permeable than a corresponding non-macrocyclic counterpart. […] To measure the cell permeability of these compounds, intact cells are incubated with fluorescently labeled (e.g. fluorescein-conjugated) macrocyclic peptidomimetic molecule or corresponding non-macrocyclic counterpart (10 μM) for 4 hrs in serum free media at 37° C. Cells are then washed twice with media, incubated with trypsin (e.g. 0.25% trypsin, 10 min, 37° C.), then washed again and resuspended in PBS. Cellular fluorescence is analyzed, for example, by using a FACSCalibur flow cytometer. Alternatively, the ability of the fluorescently labelled compound to penetrate cells can be assessed by confocal fluorescence microscopy.
Similar results were obtained for other p53 macrocyclic peptidomimetic molecules described in FIG. 10.
The cell permeability properties of the macrocyclic peptidomimetics and reference linear peptides were assessed using HEK-293 cell line. These cells were cultured in the DMEM medium supplemented with 10% fetal bovine serum and penicillin/streptomycin. For the cell permeability evaluations, cells were seated overnight (1×10^4 cells/well) in 24-well tissue culture treated plates with glass bottom. […]

HDMX = target: T1, HDMX (Homo sapiens, UniProt O15151); assay: SPR inhibition assay, disruption of p53(15-29)-HDMX interaction; assay type: binding; settings: selectivity ratio between the two protein homologs
T1 construct: His tag (C); made in house; host or cells: E. coli BL21(DE3)
T1 sequence (O15151 1-109): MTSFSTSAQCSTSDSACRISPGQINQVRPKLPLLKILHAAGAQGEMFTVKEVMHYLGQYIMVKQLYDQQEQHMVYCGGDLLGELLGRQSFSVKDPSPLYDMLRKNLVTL
Source text: The ability of the macrocyclic peptidomimetic molecules to bind a protein of interest and disrupt a target protein-protein interaction can be assessed, for example, via in vitro surface plasmon resonance (SPR)-based inhibition assays. For example, the ability of these compounds to inhibit the interaction of p53 with oncoprotein HDM2 and HDMX can be measured via an in-solution inhibition assay, in which a biotinylated p53-derived peptide (e.g., biotin-SGSG-p5315-29) is first immobilized on a streptavidin-coated biosensor chip. Soluble HDM2 (or HDMX) is then incubated with varying concentrations of the macrocycle and the mixture is then injected over the functionalized surface. With increasing concentrations of the inhibitor, binding of HDM2 (or HDMX) to the surface is inhibited, leading to a decrease in biosensor response. The response-concentration curves can be then analyzed to measure the inhibitory activity of the compounds in terms of half-maximal inhibitory concentration (IC50).
Briefly, biotin-conjugated […] peptide was first immobilized on a streptavidin-coated biosensor chip and increasing concentrations of the inhibitors were added to a fixed concentration of HDM2 or HDMX. From the corresponding dose-response curves (FIGS. 12A-12B), half-maximal inhibitory concentrations (IC50) were determined for the compounds as summarized in FIG. 10. […]

[2] = tested on: p53(15-29)-HDMX interaction; assay: HDMX IC50 (nM)
Source text: (§1) Table printed on a drawing sheet, FIG. 10
Head of the field: HDMX IC50 (nM)
(§2) The patent's description of the figure: FIG. 10. Amino acid sequence, structure, and inhibitory activity of selected p53 macrocyclic peptidomimetics and reference linear peptides. The inhibitory activities refer to IC50 values for disruption of p53(15-29)-HDM2 interaction or p53(15-29)-HDMX interaction as determined using a Surface Plasmon Resonance-based inhibition assay.
(§3) First copying reader's note: In cyclic peptides the linker name (SP4, SP6, SP8, SP9) is printed above the sequence inside a bracket running from the pAcF/mAcF residue to the C-terminus; it is given here before the sequence.
(§4) Where the first naming reader finds the target: description_of_the_figure: IC50 values for disruption of p53(15-29)-HDM2 interaction or p53(15-29)-HDMX interaction

[3] = tested on: p53(15-29)-HDM2 interaction; assay: HDM2 IC50 (nM)
Source text: as §1
Head of the field: HDM2 IC50 (nM)
as §2, §3, §4

Molecule | α-helical content [1] | viability of SJSA-1 cells upon treatment (SJSA-1 cells) | survival of incubation with the protease, up to (chymotrypsin) | pIC50 [2] | pIC50 [3] | other results
CC1=NOCCCNC(=O)c2ccc(CSCC(N)=O)c(c2)NC(=O)[C@H](C)NC(=O)[C@H](CC(C)C)NC(=O)[C@H](CC(C)C)NC(=O)[C@H](CC(N)=O)NC(=O)[C@H](Cc2c[nH]c3ccccc23)NC(=O)[C@H](Cc2ccc(O)cc2)NC(=O)[C@H](CCC(=O)O)NC(=O)[C@H](C)NC(=O)[C@H](Cc2ccccc2)NC(=O)[C@H](CO)NC(=O)[C@@H](NC(=O)CN)Cc2ccc1cc2 [P8] | 21% | a reduction of cell viability | ≤ 4 h |  |  | cellular uptake (confocal fluorescence microscopy) (HEK-293 cells): diffuse fluorescence at the intracellular level
COc1ccc(C2=N[C@@H](c3ccc(Cl)cc3)[C@@H](c3ccc(Cl)cc3)N2C(=O)N2CCNC(=O)C2)c(OC(C)C)c1 [nutlin-3] |  | responsiveness of the cells to p53-HDM2 inhibition was confirmed |  |  |  | 
P6: unconstrained reference linear peptide (SEQ ID NO. 44), acyclic counterpart of P7 and P8 (GYSFAEYWNLLA; Engineered Sequence) [reference compound] | about 31% |  |  |  |  | IC50(HDMX)/IC50(HDM2) (HDMX): 5.5
P6: unconstrained reference linear peptide (SEQ ID NO. 44), acyclic counterpart of P7 and P8 (GYSFAEYWNLLA; Engineered Sequence) |  |  |  | 6.45 | 7.19 | 
CC1=NOCc2ccc(CS)c(c2)NC(=O)[C@H](C)NC(=O)[C@H](CC(C)C)NC(=O)[C@H](CC(C)C)NC(=O)[C@H](CC(N)=O)NC(=O)[C@H](Cc2c[nH]c3ccccc23)NC(=O)[C@H](Cc2ccc(O)cc2)NC(=O)[C@H](CCC(=O)O)NC(=O)[C@H](C)NC(=O)[C@H](Cc2ccccc2)NC(=O)[C@H](CO)NC(=O)[C@@H](NC(=O)CN)Cc2ccc1cc2 [P9] |  |  |  | < 4.30 | < 4.30 | 
CC1=NOCc2cn(nn2)Cc2ccc(CSCC(N)=O)c(c2)NC(=O)[C@H](C)NC(=O)[C@H](CC(C)C)NC(=O)[C@H](CC(C)C)NC(=O)[C@H](CC(N)=O)NC(=O)[C@H](Cc2c[nH]c3ccccc23)NC(=O)[C@H](Cc2ccc(O)cc2)NC(=O)[C@H](CCC(=O)O)NC(=O)[C@H](C)NC(=O)[C@H](Cc2ccccc2)NC(=O)[C@H](CO)NC(=O)[C@@H](NC(=O)CN)Cc2ccc1cc2 [P7] | 40% |  | up to 3 hour |  |  | 
